We go through one compound from US10669266B2, “Oxadiazole inhibitors of HIPK2 for treating kidney fibrosis” (ICAHN SCHOOL OF MEDICINE AT MOUNT SINAI, priority 2017, dated 2020).

In test [1] the test system is UUO mice. As to the kind of experiment: Unilateral ureteral obstruction (UUO) mouse model of renal fibrosis. It is filed as in vivo. Conditions: for fibrosis at 14 days post-surgery (picosirius red, Masson's trichrome, Collagen I immunofluorescence): administration starting at day 7 post-surgery (day 7 to 14). On the procedure:
(§1) Tg26 mice of FVB/N genetic background bearing a defective HIV-1 provirus lacking gag-pol have been described by Feng et al. [J Am Soc Nephrol 2009; 20: 2138-2146]. Six-week old heterozygous Tg26 mice were used in this study. Wildtype littermates were used as controls. Mice in the treatment group received test compound dissolved in DMSO and diluted in saline (5% DMSO) by oral gavage at a dose of 200 μg/kg body weight per day. Mice in the control group received the same volume of 5% DMSO/saline vehicle. The mice were treated for a total of 4 weeks and sacrificed at age of 10 weeks. The UUO model was established in male C57BL/6 mice (The Jackson Laboratory) by ligation of the left ureter as described by Jin et al. [Lab Invest, 93: 801-811, 2013]. After the operation, UUO mice were randomly divided into control group (vehicle) and treatment group. Mice were fed with test compound by oral gavage at a dose of 200 μg/kg body weight per day for 7 days.
(§2) Immunofluorescence staining was conducted on paraffin-embedded kidney sections using standard procedures. Briefly, deparaffinized sections were incubated with primary antibody against collagen I (1:50, #NB6-00-4-8, Novus) at 4° C. overnight. After being washed, sections were incubated with Alexa Fluor488-labelled second antibody (1:200, #A11034, Invitrogen) at room temperature for 1 hour in darkness. After nuclei were stained with 4′, 6-diamidino-2-phenyllindole (DAPI) slides were mounted using Aqua PolyMount (Polysciences, Inc) and images were acquired using AxioVision IIe microscope with a digital camera.
(§3) Renal fibrosis was evaluated histologically by Sirius red staining on paraffin slides of mice kidney tissues according to the manufacturer's instructions (#ab150681, Abcam). Masson's trichrome staining on paraffin slices of mice kidney tissue was performed according to manufacturer's instructions (#87019, Thermo Scientific).
The unilateral ureteral obstruction (UUO) mouse model, a commonly used model for renal fibrosis, was used to determine whether compounds of the invention can ameliorate fibrosis in vivo. […]

The test system of test [2] is Smad3 phosphorylation. The test is described as follows: TGF-β1-induced Smad3 phosphorylation in hRTECs (western blot). In kind it is cell-based, human. Conditions: pretreatment, TGF-β1 5 ng/ml for 20 minutes. As to the method:
HEK 293T (293T) cells (ATCC) were cultured in Dulbecco's Modified Eagle's medium (Invitrogen) containing 10% fetal bovine serum (FBS), 0.5% penicillin and streptomycin at 37° C. and 5% CO2 humidified environment. Human primary tubular cells (PromoCell GmbH, Heidelberg, Germany) were cultured in Renal Epithelial Cell Growth Medium-2 (Promocell GmbH) with supplements according to manufacturer's protocol human primary renal tubular epithelial cells with <5 passages were used for all studies. For HIV infection of hRTECs, pNL4-3:ΔG/P-EGFP, a gag/poi-deleted HIV-1 construct that contains EGFP in the gag open reading frame, and pHR-IRES-EGFP, a control EGFP construct, were used to generate the VSV-G pseudotyped virus. Cells were infected with HIV pseudotyped virus or control virus for 2 days before the treatment with test compound.
Cells were lysed in M-PER mammalian protein extraction reagent (#78501, Thermo Fisher Scientific, NY) containing protease inhibitor cocktail (#11836153001, Roche) and phosphatase inhibitors (50 mM NaF, 10 mM β-glycerophosphate, 5 mM sodium pyrophosphate, 2 mM Na3VO4). Total protein concentration was measured using the Bradford reagent (#500-0006, Bio-Rad). Proteins were separated on SDA-PAGE and transferred to nitrocellulose membrane. […]
On the technique in general: A western blot detects proteins with antibodies after separation by electrophoresis.

Test [3] deals with Tg26 mice. As to the kind of experiment: Tg26 (HIV-1 transgenic) mouse model of kidney disease. In kind it is in vivo. As to the method:
as §1, §2, §3
Tg26 mice are known to develop proteinuria starting from 4 weeks of age and the proteinuria peaks usually around 8-10 weeks of age. Tg26 mice also develop significant glomerulosclerosis and renal failure by 8-10 weeks of age. To determine whether compounds of the invention could reverse kidney injury that has been already developed, we started to treat Tg26 mice with either vehicle or Example 1 from age of 6 weeks for a total of 4 weeks, and the mice were sacrificed at age of 10 weeks.

[4] abbreviates: Tg26 mice treated from age of 6 weeks for 4 weeks, vs vehicle.
Where [5] appears, read: Tg26 mice, post-treatment (week 4), 200 μg/kg/day oral gavage.
Setting [6] is: Tg26 mice, pre-treatment (week 0).
Setting [7] is: Wildtype mice, post-treatment (week 4), 200 μg/kg/day oral gavage.
[8] abbreviates: Wildtype mice, pre-treatment (week 0).

Consider `COc1ccc2cc(-c3nc(-c4ccc(Br)cc4)no3)cnc2c1` [Example 1, 3-(4-Bromophenyl)-5-(7-methoxyquinolin-3-yl)-1,2,4-oxadiazole], for which the “expression of Wnt/β-catenin pathway genes (Axin2, c-myc, Twist), real-time PCR” value in test [1] (UUO kidneys, treatment day 7 to 14) is given as “significantly diminished”. Moreover, in test [1] (UUO mice, 200 μg/kg/day oral gavage, day of surgery to 7 days post-surgery), the “Smad3 phosphorylation and α-SMA expression in UUO kidneys (western blot)” value is given as “significantly decreased”. Besides, the “renal fibrosis (picrosirius red, Masson's trichrome, Collagen I immunofluorescence)” value in test [1] (UUO mice, 200 μg/kg/day oral gavage, day of surgery to 7 days post-surgery, vs vehicle) is reported as “significantly attenuated renal fibrosis”. Besides, the “fibrosis at 14 days post-surgery (picosirius red, Masson's trichrome, Collagen I immunofluorescence)” value in test [1] (UUO mice, listed as BT173) is reported as “significant attenuation of fibrosis”; in test [1] (UUO mice, listed as Example I), “showed efficacy in amelioration of fibrosis progression”. Further, the “p53 activation (phosphorylation) in UUO kidneys” value in test [1] (UUO mice, treatment day 7 to 14) was “no effects”. For the same compound, the “p-Smad3 and α-SMA in kidney cortex (western blot)” value in test [1] (UUO mice, treatment day 7 to 14, vs vehicle-treated UUO kidneys) is on record as “marked reduction”. The “Smad3 phosphorylation induced by TGF-β1” value in test [2] is “gradually inhibited”. In addition, the “Smad3 phosphorylation and α-SMA expression” value in test [3] (Tg26 mice) is recorded as “significantly reduced”. Besides, the “kidney injury and renal fibrosis (picrosirius red, Masson's trichrome, Collagen I immunofluorescence)” value in test [3] (Tg26 mice) was “attenuated kidney injury and renal fibrosis”. Moreover, the proteinuria result in test [3] (setting [4]) is listed as “significantly reduced proteinuria”. In addition, the renal function entry in test [3] (setting [4]) is reported as “improved renal function”. Moreover, the BUN stood at 22.404 ± 4.678 mg/dL in test [3] (setting [5]), 23.799 ± 1.990 mg/dL in test [3] (setting [6]), 18.875 ± 3.485 mg/dL in test [3] (setting [7]) and 21.091 ± 3.009 mg/dL in test [3] (setting [8]). Also, the “Urinary Albumin:Creatinine Ratio” value in test [3] (setting [5]) was 19.917 ± 5.838 µg/µg; in test [3] (setting [6]), 23.321 ± 12.339 µg/µg; in test [3] (setting [7]), 0.036 ± 0.008 µg/µg; in test [3] (setting [8]), 0.033 ± 0.007 µg/µg.
